Experimental data published in BindingDB's records for doi:10.1016/s0960-894x(99)00197-3 (The R. W. Johnson Pharmaceutical Research Institute, 1999).
Where a SMILES comes first, the peptide text is derived from it. [ ]: non-standard residue; d: D form. The star is where a group is joined. Cha = N[C@@H](CC1CCCCC1)C(=O)O; Nicotinoyl = O=C(c1cccnc1)*; 3Abz = Nc1cccc(C(=O)O)c1

Assay: Activation of human platelet aggregation (gel-filtered platelets) induced by alpha thrombin
`NCCCC[C@H](NC(=O)[C@H](CC1CCCCC1)NC(=O)c1nnc(N)[nH]1)C(=O)N[C@@H](Cc1ccccc1)C(N)=O` [5-Amino-1H-[1,2,4]triazole-3-carboxylic acid {(S)-1-[(S)-5-amino-1-((S)-1-carbamoyl-2-phenyl-ethylcarbamoyl)-pentylcarbamoyl]-2-cyclohexyl-ethyl}-amide] gave an EC50 of 3.9 µM. Compound `N=C(N)NCCC[C@H](NC(=O)[C@H](CC1CCCCC1)NC(=O)c1nnc(NC(=O)C=Cc2ccc(F)cc2)[nH]1)C(=O)N[C@@H](Cc1ccccc1)C(N)=O` [5-[(E)-3-(4-Fluoro-phenyl)-acryloylamino]-1H-[1,2,4]triazole-3-carboxylic acid {(S)-1-[(S)-1-((S)-1-carbamoyl-2-phenyl-ethylcarbamoyl)-4-guanidino-butylcarbamoyl]-2-cyclohexyl-ethyl}-amide] has an EC50 of 7.9 µM. Compound `N=C(N)NCCC[C@H](NC(=O)[C@H](CC1CCCCC1)NC(=O)c1nnc(N)[nH]1)C(=O)N[C@H](C(N)=O)c1ccccc1` [5-Amino-1H-[1,2,4]triazole-3-carboxylic acid ((S)-1-{(S)-1-[((S)-carbamoyl-phenyl-methyl)-carbamoyl]-4-guanidino-butylcarbamoyl}-2-cyclohexyl-ethyl)-amide] has an EC50 of 3.1 µM. Work on `N=C(N)NCCC[C@H](NC(=O)[C@H](CC1CCCCC1)NC(=O)c1nccnc1N)C(=O)N[C@@H](Cc1ccccc1)C(N)=O` [3-Amino-pyrazine-2-carboxylic acid {(S)-1-[(S)-1-((S)-1-carbamoyl-2-phenyl-ethylcarbamoyl)-4-guanidino-butylcarbamoyl]-2-cyclohexyl-ethyl}-amide] yielded an EC50 of 4.2 µM. For `N=C(N)NCCC[C@H](NC(=O)[C@H](CC1CCCCC1)NC(=O)c1nnc(N)[nH]1)C(=O)N[C@@H](Cc1ccccc1)C(N)=O` [5-Amino-1H-[1,2,4]triazole-3-carboxylic acid {(S)-1-[(S)-1-((S)-1-carbamoyl-2-phenyl-ethylcarbamoyl)-4-guanidino-butylcarbamoyl]-2-cyclohexyl-ethyl}-amide], the EC50 was 0.76 µM.

Assay: Inhibition of [3H]S-(p-F-Phe)-Har-L-Har-KY-NH2 binding to Thrombin receptor 1 (PAR-1) on membranes from CHRF cells
`N=C(N)NCCC[C@H](NC(=O)[C@H](CC1CCCCC1)NC(=O)c1cc2ccccc2s1)C(=O)N[C@@H](Cc1ccccc1)C(N)=O` [Benzo[b]thiophene-2-carboxylic acid {(S)-1-[(S)-1-((S)-1-carbamoyl-2-phenyl-ethylcarbamoyl)-4-guanidino-butylcarbamoyl]-2-cyclohexyl-ethyl}-amide] gave an EC50 of 8.3 µM. Compound `N=C(N)NCCC[C@H](NC(=O)[C@H](CC1CCCCC1)NC(=O)C=Cc1cccnc1)C(=O)N[C@@H](Cc1ccccc1)C(N)=O` [(S)-2-[(S)-3-Cyclohexyl-2-((E)-3-pyridin-3-yl-acryloylamino)-propionylamino]-5-guanidino-pentanoic acid ((S)-1-carbamoyl-2-phenyl-ethyl)-amide] has an EC50 of 2.6 µM. With `N=C(N)NCCC[C@H](NC(=O)[C@H](CC1CCCCC1)NC(=O)c1nnc(NC(=O)C=Cc2ccc(Cl)cc2)[nH]1)C(=O)N[C@@H](Cc1ccccc1)C(N)=O` [5-[(E)-3-(4-Chloro-phenyl)-acryloylamino]-1H-[1,2,4]triazole-3-carboxylic acid {(S)-1-[(S)-1-((S)-1-carbamoyl-2-phenyl-ethylcarbamoyl)-4-guanidino-butylcarbamoyl]-2-cyclohexyl-ethyl}-amide] the EC50 was 55 µM. In the case of `N=C(N)NCCC[C@H](NC(=O)[C@H](CC1CCCCC1)NC(=O)c1nnc(NC(=O)C=Cc2ccc(C(F)(F)F)cc2)[nH]1)C(=O)N[C@@H](Cc1ccccc1)C(N)=O` [5-[(E)-3-(4-Trifluoromethyl-phenyl)-acryloylamino]-1H-[1,2,4]triazole-3-carboxylic acid {(S)-1-[(S)-1-((S)-1-carbamoyl-2-phenyl-ethylcarbamoyl)-4-guanidino-butylcarbamoyl]-2-cyclohexyl-ethyl}-amide], the EC50 is reported as 5 µM. With `N=C(N)NCCC[C@H](NC(=O)[C@H](CC1CCCCC1)NC(=O)c1nnc(NC(=O)C=Cc2ccccc2Cl)[nH]1)C(=O)N[C@@H](Cc1ccccc1)C(N)=O` [5-[(E)-3-(2-Chloro-phenyl)-acryloylamino]-1H-[1,2,4]triazole-3-carboxylic acid {(S)-1-[(S)-1-((S)-1-carbamoyl-2-phenyl-ethylcarbamoyl)-4-guanidino-butylcarbamoyl]-2-cyclohexyl-ethyl}-amide] the EC50 was 1.1 µM. `N=C(N)NCCC[C@H](NC(=O)[C@H](CC1CCCCC1)NC(=O)c1csnn1)C(=O)N[C@@H](Cc1ccccc1)C(N)=O` [[1,2,3]Thiadiazole-4-carboxylic acid {(S)-1-[(S)-1-((S)-1-carbamoyl-2-phenyl-ethylcarbamoyl)-4-guanidino-butylcarbamoyl]-2-cyclohexyl-ethyl}-amide] showed an EC50 of 1.3 µM. With `N=C(N)NCCC[C@H](NC(=O)[C@H](CC1CCCCC1)NC(=O)c1nnc(N)[nH]1)C(=O)N[C@@H](Cc1cccs1)C(N)=O` [5-Amino-1H-[1,2,4]triazole-3-carboxylic acid {(S)-1-[(S)-1-((S)-1-carbamoyl-2-thiophen-2-yl-ethylcarbamoyl)-4-guanidino-butylcarbamoyl]-2-cyclohexyl-ethyl}-amide] the EC50 was 10.5 µM. Compound `N=C(N)NCCC[C@H](NC(=O)[C@H](CC1CCCCC1)NC(=O)c1cccnc1)C(=O)N[C@@H](Cc1ccccc1)C(N)=O` [N-{(S)-1-[(S)-1-((S)-1-Carbamoyl-2-phenyl-ethylcarbamoyl)-4-guanidino-butylcarbamoyl]-2-cyclohexyl-ethyl}-nicotinamide] (Nicotinoyl-[Cha]-Arg-Phe-NH2) has an EC50 of 2 µM. For `COc1ccc(C=CC(=O)Nc2nnc(C(=O)N[C@@H](CC3CCCCC3)C(=O)N[C@@H](CCCNC(=N)N)C(=O)N[C@@H](Cc3ccccc3)C(N)=O)[nH]2)cc1` [5-[(E)-3-(4-Methoxy-phenyl)-acryloylamino]-1H-[1,2,4]triazole-3-carboxylic acid {(S)-1-[(S)-1-((S)-1-carbamoyl-2-phenyl-ethylcarbamoyl)-4-guanidino-butylcarbamoyl]-2-cyclohexyl-ethyl}-amide], the EC50 was 5.6 µM. Work on `N=C(N)NCCC[C@H](NC(=O)[C@H](CC1CCCCC1)NC(=O)c1cc2ccccc2o1)C(=O)N[C@@H](Cc1ccccc1)C(N)=O` [Benzofuran-2-carboxylic acid {(S)-1-[(S)-1-((S)-1-carbamoyl-2-phenyl-ethylcarbamoyl)-4-guanidino-butylcarbamoyl]-2-cyclohexyl-ethyl}-amide] yielded an EC50 of 12.5 µM. For `N=C(N)NCCC[C@H](NC(=O)[C@H](CC1CCCCC1)NC(=O)c1nnc(NC(=O)C=Cc2c[nH]c3ccccc23)[nH]1)C(=O)N[C@@H](Cc1ccccc1)C(N)=O` [5-((E)-3-1H-Indol-3-yl-acryloylamino)-1H-[1,2,4]triazole-3-carboxylic acid {(S)-1-[(S)-1-((S)-1-carbamoyl-2-phenyl-ethylcarbamoyl)-4-guanidino-butylcarbamoyl]-2-cyclohexyl-ethyl}-amide], the EC50 was 14 µM. Compound `N=C(N)NCCC[C@H](NC(=O)[C@H](CC1CCCCC1)NC(=O)c1cccnc1N)C(=O)N[C@@H](Cc1ccccc1)C(N)=O` [2-Amino-N-{(S)-1-[(S)-1-((S)-1-carbamoyl-2-phenyl-ethylcarbamoyl)-4-guanidino-butylcarbamoyl]-2-cyclohexyl-ethyl}-nicotinamide] has an EC50 of 8 µM. For `N=C(N)NCCC[C@H](NC(=O)[C@H](CC1CCCCC1)NC(=O)c1ccc(Cl)nc1)C(=O)N[C@@H](Cc1ccccc1)C(N)=O` [N-{(S)-1-[(S)-1-((S)-1-Carbamoyl-2-phenyl-ethylcarbamoyl)-4-guanidino-butylcarbamoyl]-2-cyclohexyl-ethyl}-6-chloro-nicotinamide], the EC50 was 4.6 µM. Compound `CC(C)C[C@H](NC(=O)[C@H](CC(C)C)NC(=O)[C@H](Cc1ccccc1)NC(=O)[C@@H](N)CO)C(=O)N[C@@H](CCCNC(=N)N)C(=O)N[C@@H](CC(N)=O)C(N)=O` [(S)-2-[(S)-2-((S)-2-{(S)-2-[(S)-2-((S)-2-Amino-3-hydroxy-propionylamino)-3-phenyl-propionylamino]-4-methyl-pentanoylamino}-4-methyl-pentanoylamino)-5-guanidino-pentanoylamino]-succinamide] has an EC50 of 0.28 µM. With `N=C(N)NCCC[C@H](NC(=O)[C@H](CC1CCCCC1)NC(=O)c1ccccn1)C(=O)N[C@@H](Cc1ccccc1)C(N)=O` [Pyridine-2-carboxylic acid {(S)-1-[(S)-1-((S)-1-carbamoyl-2-phenyl-ethylcarbamoyl)-4-guanidino-butylcarbamoyl]-2-cyclohexyl-ethyl}-amide] the EC50 was 14 µM. In the case of `N=C(N)NCCC[C@H](NC(=O)[C@H](CC1CCCCC1)NC(=O)c1nnc(NC(=O)C=Cc2cccs2)[nH]1)C(=O)N[C@@H](Cc1ccccc1)C(N)=O` [5-((E)-3-Thiophen-2-yl-acryloylamino)-1H-[1,2,4]triazole-3-carboxylic acid {(S)-1-[(S)-1-((S)-1-carbamoyl-2-phenyl-ethylcarbamoyl)-4-guanidino-butylcarbamoyl]-2-cyclohexyl-ethyl}-amide], the EC50 is reported as 2.9 µM. `N=C(N)NCCC[C@H](NC(=O)[C@H](CC1CCCCC1)NC(=O)c1cnc2ccccc2n1)C(=O)N[C@@H](Cc1ccccc1)C(N)=O` [Quinoxaline-2-carboxylic acid {(S)-1-[(S)-1-((S)-1-carbamoyl-2-phenyl-ethylcarbamoyl)-4-guanidino-butylcarbamoyl]-2-cyclohexyl-ethyl}-amide] gave an EC50 of 1 µM. Compound `N=C(N)NCCC[C@H](NC(=O)[C@H](CC1CCCCC1)NC(=O)c1cccc(N)c1)C(=O)N[C@@H](Cc1ccccc1)C(N)=O` [3-Amino-N-{(S)-1-[(S)-1-((S)-1-carbamoyl-2-phenyl-ethylcarbamoyl)-4-guanidino-butylcarbamoyl]-2-cyclohexyl-ethyl}-benzamide] (H-[3Abz][Cha]RF-NH2) has an EC50 of 2.9 µM. `N=C(N)NCCC[C@H](NC(=O)[C@H](CC1CCCCC1)NC(=O)c1ccc(N)nc1)C(=O)N[C@@H](Cc1ccccc1)C(N)=O` [6-Amino-N-{(S)-1-[(S)-1-((S)-1-carbamoyl-2-phenyl-ethylcarbamoyl)-4-guanidino-butylcarbamoyl]-2-cyclohexyl-ethyl}-nicotinamide] showed an EC50 of 1.2 µM. With `N=C(N)NCCC[C@H](NC(=O)[C@H](CC1CCCCC1)NC(=O)c1ccc2c(c1)-c1ccccc1-2)C(=O)N[C@@H](Cc1ccccc1)C(N)=O` [Biphenylene-2-carboxylic acid {(S)-1-[(S)-1-((S)-1-carbamoyl-2-phenyl-ethylcarbamoyl)-4-guanidino-butylcarbamoyl]-2-cyclohexyl-ethyl}-amide] the EC50 was 1.2 µM.
